Experiments:
IMPAD1 = IMPAD1 (Homo sapiens (Human), UniProt Q9NX62); assay: IMPAD1 in vitro activity assay; type: biochemical
Description: IMPAD1 Assay. Working stock solutions of IMPAD1 (0.1 mg/mL in 1× activity assay buffer), adenosine 3′,5′-diphosphate (PAP; dissolved first in DMSO to make stock solution then diluted to 200 μM in 1× assay buffer), and compound of interest in DMSO were prepared. Two technical replicates were assayed for each sample. Reaction mixes were prepared by mixing 6 μL IMPAD1 stock solution, 2.4 μL compound of interest stock or DMSO, 21.6 μL 1× assay buffer to make 30 μL reaction mix. Amount of reaction mix was scaled accordingly to number of samples assayed. 15 μL of reaction mix was dispensed to each well (384-well plate). 15 μL 200 μM PAP stock solution was added to each well. The reaction was incubated at 37° C. for 45 minutes, then quenched by addition of 15 μL of malachite green solution A, followed by addition of 15 μL of malachite green solution B. The plate was left at room temperature for 20 minutes for color stabilization, then absorbance was read at 620 nm. Phosphate standard curve generation was identical to that described under “Optimized Coupled Chromogenic SULT2B1b Activity Assay”, 384-well format. […]
Percent inhibition was calculated as: 100−[100×[(Phosphate produced per wellaverage, compound of interest−Phosphate produced per wellaverage, PAP)/(Phosphate produced per wellaverage, IMPAD1−Phosphate produced per wellaverage, PAP)]].

[1] = system: whole cell CS levels in T47D; assay: Whole cell cholesterol sulfate quantification, T47D; type: cell-based; settings: 6.25 μM, 72 hours
Description: (§1) General Whole Cell Cholesterol Sulfate Quantification. 60×15 mm tissue culture dishes were seeded with MCF-7 at 2×10^6 cells/dish or T47D at 1×10^6 cells per dish, 5 mL total media volume, and allowed to adhere overnight. Compounds of interest were dissolved in DMSO. Cells were treated with 25 μL 1.25 mM compound of interest stock (6.25 μM final compound concentration, 0.5% final DMSO concentration) or DMSO for 72 hours. To harvest, media was aspirated, and cells were washed once with PBS before detaching with trypsin. Trypsin was quenched with media. Cells were centrifuged at 300 xg for 3 minutes and supernatant was discarded. Cells were resuspended in media and counted using a Countess 3 automated cell counter (Thermo Fisher Scientific). 1.5×10^6 cells were collected, washed twice with 1 mL PBS, then pelleted and stored at −80° C. until lysis. […] 100 μL of supernatant was transferred to an empty Eppendorf tube and submitted for LC-MS/MS quantification (UIUC Metabolomics Center), along with 5 mM cholesterol sulfate sodium salt standard.
(§2) General LC-MS/MS Quantification Method. Both DHEAS and CS samples were analyzed by 6500 QTRAP (Sciex, Redwood City, CA) liquid chromatography-tandem mass spectrometry. […] Cholesterol-sulfate and DHEA-sulfate were detected by multiple reaction monitoring (MRM) at m/z 465→97.0 and 367.0→97.0 respectively. […]

[2] = system: whole cell CS levels in MDG; assay: Whole cell cholesterol sulfate quantification, MDG; type: cell-based, human; settings: 6.25 μM, 72 hours
Description: as §1, §2

[3] = system: STS and SULT2B1b levels in MCF-7; assay: Western blot of STS and SULT2B1b after treatment, MCF-7; type: cell-based, human; settings: MCF-7, 6.25 μM, 72 hours
Description: (§3) Western Blot Analysis. Cells were lysed using RIPA buffer containing phosphatase (BioVision) and protease inhibitor cocktail (Calbiochem). Protein concentrations were determined using the BCA assay (Pierce). Lysates containing 15 μg of protein were loaded onto 4-20% gradient gels (BioRad), and SDS-PAGE was run. Proteins were then transferred onto membrane (PVDF Millipore) for Western Blot analysis. Blots were blocked with BSA solution (2 g in 40 mL TBST) for one hour followed by primary antibody addition and incubation overnight (using manufacturer's recommended dilutions). Following overnight incubation, blots were washed with TBST, and incubated with HRP-linked secondary antibody for 1 hour in TBST. Blots were washed, then imaged with ChemiDoc after incubation with SuperSignal West Pico Solution following manufacturer's procedures.

[4] = system: STS and SULT2B1b levels in T47D; assay: Western blot of STS and SULT2B1b after treatment, T47D; type: cell-based; settings: 6.25 μM, 72 hours
Description: as §3

[5] = in vivo, ip
Description: Tolerability Studies. Three female C57/BL6 mice were administered single IP doses (formulated in 50% DMSO/50% Peg400) of compound (2). Compound was formulated at a concentration of 20-40 mg/mL depending on dose. Mice were injected with 100 μL formulated compound. Mouse weight and lethality were tracked as indicators of compound tolerability. Tolerability of vehicle had been previously assessed.
Maximum tolerated dose mouse studies: Compound (3) was formulated in 50% DMSO, 50% Peg400 at 20 mg/mL (for 100 mg/kg injection), 25 mg/mL (for 125 mg/kg injection), or 40 mg/mL (for 200 mg/kg injection). Compound was injected intraperitoneally into female C57BL/6 mice, and the mice were monitored for signs of toxicity.

[6] = Pharmacokinetic mouse studies; type: in vivo, C57BL/6 mice; settings: for concentration in the serum: mice
Description: Pharmacokinetic Analysis. […] Whole blood was collected, centrifuged, and EDTA serum separated for quantification by […] methods (UIUC Metabolomics Center, Urbana, IL).
Pharmacokinetic mouse studies: Compound (3) was formulated in 50% DMSO, 50% Peg400 at 40 mg/mL (for 200 mg/kg injection), Compound was injected intraperitoneally into female C57BL/6 mice (3 per time point). Blood from the mice were harvested at each time point. Serum was separated and concentration in the serum was quantified by LC-MS/MS.

[7] = female, mouse, 200 mg/kg, C57BL/6 mice, single IP dose, serum

Chain of IMPAD1 (Q9NX62 whole entry): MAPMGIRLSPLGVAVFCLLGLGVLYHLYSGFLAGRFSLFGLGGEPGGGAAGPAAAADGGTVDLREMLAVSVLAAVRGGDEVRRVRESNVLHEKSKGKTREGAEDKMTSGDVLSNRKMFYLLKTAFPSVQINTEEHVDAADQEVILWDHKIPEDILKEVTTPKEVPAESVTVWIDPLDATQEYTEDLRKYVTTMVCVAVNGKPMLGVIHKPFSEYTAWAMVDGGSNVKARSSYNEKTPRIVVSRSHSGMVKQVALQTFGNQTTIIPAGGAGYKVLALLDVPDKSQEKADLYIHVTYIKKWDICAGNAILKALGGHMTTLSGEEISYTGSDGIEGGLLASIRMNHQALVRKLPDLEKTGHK

| SMILES | inhibition of IMPAD1 (IMPAD1) | whole cell CS levels vs DMSO [1] | whole cell CS levels vs DMSO [2] | STS and SULT2B1b levels after treatment [3] | STS and SULT2B1b levels after treatment [4] | tolerated dose ([5]; female, C57BL/6, mouse) | tolerability ([5]; mouse, 200 mg/kg) | CL ([6]; C57BL/6 mice, single IP dose, serum) | AUC [6, 7] | Cmax [6, 7] | MRT [6, 7] | half-life [6, 7] | concentration in the serum ([6]; 200 mg/kg intraperitoneally) | concentration in the serum ([6]; stated as 150 mg/kg IP) |
| --- | --- | --- | --- | --- | --- | --- | --- | --- | --- | --- | --- | --- | --- | --- |
| C[C@]12CCC(=O)N(Cc3ccc(Cl)cc3)C1=CC[C@@H]1[C@@H]2C(=O)C[C@]2(C)C(=O)CC[C@@H]12 [Compound 1, (4aR,4bS,6aS,9aS,9bS)-1-(4-chlorobenzyl)-4a,6a-dimethyl-3,4,4a,6,6a,8,9,9a,9b,10-decahydro-1H-indeno[5,4-f]quinoline-2,5,7(4bH)-trione] | does not inhibit | – | – | – | – | – | – | – | – | – | – | – | – | – |
| C[C@]12CCC(=O)N(Cc3ccc(Br)cc3)C1=CC[C@@H]1[C@@H]2C(=O)C[C@]2(C)C(=O)CC[C@@H]12 [Compound 3, (4aR,4bS,6aS,9aS,9bS)-1-(4-bromobenzyl)-4a,6a-dimethyl-3,4,4a,6,6a,8,9,9a,9b,10-decahydro-1H-indeno[5,4-f]quinoline-2,5,7(4bH)-trione] | – | confirmed | confirmed | unchanged | unchanged | up to 200 mg/kg | not tolerated | 90.56 mL/min/kg | 36800 ng·h/mL | 19800 ng/mL | 1.86 h | 1.29 h | ~50 µM | ~50 µM |
